Laboratory results published in ChEMBL document CHEMBL6092165, “Discovery of sp3-rich diazatricycloundecanes as lysosomotropic autophagy inhibitors” (Eur J Med Chem, 2024).
Calls of active or inactive are those of the source. No cut-off for these calls is given here.

Legend:
HeLa [1] = assay: Antiproliferative activity against human HeLa cells assessed as inhibition of cell growth incubated for 72 hrs by MTT assay; format: functional, cell-based
[2] = Induction of autophagic flux in human HeLa cells overexpressing EGFP-LC3 assessed as fold increase in GFP-tagged LC3-II protein expression at 10 uM incubated for 24 hrs by Western blotting analysis (reference value: 1); format: functional
Lysosomal membrane [3] = assay: Disruption of lysosomal membrane in human HT-1080 cells assessed as downregulation of cathepsin B expression at 20 uM incubated for 12 hrs by Western blotting analysis; format: subcellular
Lysosomal membrane [4] = assay: Disruption of lysosomal membrane in human HT-1080 cells assessed as downregulation of cathepsin B expression at 5 uM incubated for 12 hrs by Western blotting analysis; format: subcellular
[5] = Induction of autophagic flux in human HeLa cells overexpressing EGFP-LC3 assessed as fold increase in GFP-tagged LC3-II protein expression at 3 uM incubated for 24 hrs by Western blotting analysis (reference value: 1); format: functional
HeLa [6] = assay: Induction of autophagy in human HeLa cells overexpressing EGFP-LC3 assessed as increase in LC3-II puncta formation at 10 uM incubated for 24 hrs in presence of chloroquine by Hoechst staining based immunofluorescence analysis; format: functional, cell-based
HeLa [7] = assay: Induction of autophagy in human HeLa cells overexpressing EGFP-LC3 assessed as increase in LC3-II puncta formation at 10 uM incubated for 24 hrs in presence of rapamycin by Hoechst staining based immunofluorescence analysis; format: functional, cell-based
Lysosomal membrane [8] = assay: Induction of lysosomal membrane permeabilization in human HeLa cells assessed as increase fluorescence intensity at 10 uM incubated for 24 hrs in presence of chloroquine by LysoTracker Red DND-99 dye based confocal laser microscopic analysis; format: subcellular
Lysosomal membrane [9] = assay: Induction of lysosomal membrane permeabilization in human HeLa cells assessed as increase fluorescence intensity at 10 uM incubated for 24 hrs in presence of bafilomycin A1 by LysoTracker Red DND-99 dye based confocal laser microscopic analysis; format: subcellular
Lysosomal membrane [10] = assay: Disruption of lysosomal membrane in human HT-1080 cells assessed as downregulation of cathepsin B expression at 20 uM by Western blotting analysis; format: subcellular
Lysosomal membrane [11] = assay: Disruption of lysosomal membrane in human HT-1080 cells assessed as downregulation of cathepsin B expression incubated for 24 hrs by Western blotting analysis; format: subcellular
HT-1080 [12] = assay: Induction of autophagic flux in human HT-1080 cells assessed as increase in LC3-II protein expression at 10 uM incubated for 24 hrs by Western blotting analysis; format: functional, cell-based
HT-1080 [13] = assay: Antiproliferative activity against human HT-1080 cells assessed as inhibition of cell growth incubated for 72 hrs by MTT assay; format: functional, cell-based
[14] = Induction of autophagic flux in human HeLa cells overexpressing EGFP-LC3 assessed as fold increase in GFP-tagged LC3-II protein expression at 1 uM incubated for 24 hrs by Western blotting analysis (reference value: 1); format: functional
HeLa [15] = assay: Induction of autophagic flux in human HeLa cells overexpressing EGFP-LC3 assessed as increase in GFP-tagged LC3-II protein expression at 10 uM incubated for 24 hrs by Western blotting analysis; format: functional, cell-based

CCN(CC)CCCC(C)Nc1ccnc2cc(Cl)ccc12 (configuration not stated) [CHLOROQUINE]
IC50 (HeLa [1]): 43.1 µM | fold change (FC) [2]: 2 | Activity (Lysosomal membrane [3]): Active

CCCCC(=O)OC1CC2CN(Cc3ccccc3)CC3C1[C@@H](CC(=O)NCc1ccccc1)CN23 (some centres not stated)
IC50 (HeLa [1]): 6.7 µM | fold change (FC) [2]: 5.4

CCCCCCCCCCCCCCCC(=O)OC1CC2CN(Cc3ccccc3)CC3C1[C@@H](CC(=O)NCc1ccccc1)CN23 (some centres not stated)
IC50 (HeLa [1]): 5.5 µM | fold change (FC) [2]: 1.1

CCCCCCNC(=O)/C=C1/CN2C3CC(OC(=O)C(C)C)C1C2CN(C(=O)OCc1ccccc1)C3 (configuration not stated)
IC50 (HeLa [1]): 23.1 µM | fold change (FC) [2]: 1.3

CCCCCCNC(=O)/C=C1/CN2C3CC(OC(=O)C(C)C)C1C2CN(C(=O)c1ccccc1)C3 (configuration not stated)
IC50 (HeLa [1]): > 100 µM | fold change (FC) [2]: 1.3

CC(C)NC(=O)C[C@H]1CN2C3CC(OC(=O)C(C)C)C1C2CN(Cc1ccccc1)C3 (some centres not stated)
IC50 (HeLa [1]): > 100 µM | fold change (FC) [2]: 1.8

CCCCCCNC(=O)/C=C1/CN2C3CC(OC(=O)C(C)C)C1C2CN(C)C3 (configuration not stated)
IC50 (HeLa [1]): > 100 µM | fold change (FC) [2]: 2.1

CO/C1=C\C(C)=C\[C@@H](C)[C@@H](O)[C@@H](C)C/C(C)=C/C=C/[C@H](OC)[C@@H]([C@@H](C)[C@@H](O)[C@H](C)[C@@]2(O)C[C@@H](O)[C@H](C)[C@@H](C(C)C)O2)OC1=O
Activity (Lysosomal membrane [4]): Active

CCCCCCNC(=O)C[C@H]1CN2C3CC(OC(=O)C(C)C)C1C2CN(Cc1ccccc1)C3 (some centres not stated)
IC50 (HeLa [1]): 10.1 µM | fold change (FC) [2]: 2.4 | fold change (FC) [5]: 2.6 | Activity (HeLa [6]): Not active; Compared To Compound Alone Or Chloroquine Alone Treatment; Mechanism Of Action Similar To Chloroquine | Activity (HeLa [7]): Active; Compared To Compound Alone Or Rapamycin Alone Treatment | Activity (Lysosomal membrane [8]): Active; Compound Observed To Enlarge Lysosome And Increase Lysosomal Ph Similar To Chloroquine | Activity (Lysosomal membrane [9]): inactive | Activity (Lysosomal membrane [10]): Time-dependent-effect | Activity (Lysosomal membrane [11]): Dose-dependent-effect | Activity (HT-1080 [12]): Active | Activity (HT-1080 [13]): Active | fold change (FC) [14]: 1.3

O=C(C[C@H]1CN2C3CC(=O)C1C2CN(Cc1ccccc1)C3)NCc1ccccc1 (some centres not stated)
IC50 (HeLa [1]): > 100 µM | Activity (HeLa [15]): inactive

O=C(C[C@H]1CN2C3CC(OC(=O)C4CC4)C1C2CN(Cc1ccccc1)C3)NCc1ccccc1 (some centres not stated)
IC50 (HeLa [1]): 18 µM | fold change (FC) [2]: 5.7

O=C(C[C@H]1CN2C3CC(OC(=O)Cc4ccccc4)C1C2CN(Cc1ccccc1)C3)NCc1ccccc1 (some centres not stated)
IC50 (HeLa [1]): 14.8 µM | fold change (FC) [2]: 2

CC(C)C(=O)OC1CC2CN(Cc3ccccc3)CC3C1[C@@H](CC(=O)NCc1ccccc1)CN23 (some centres not stated)
IC50 (HeLa [1]): 19.3 µM | fold change (FC) [2]: 1.9

C#CCCCC(=O)OC1CC2CN(Cc3ccccc3)CC3C1[C@@H](CC(=O)NCc1ccccc1)CN23 (some centres not stated)
IC50 (HeLa [1]): 15.7 µM | fold change (FC) [2]: 4.3

CCOC(=O)C[C@H]1CN2C3CC(=O)C1C2CN(Cc1ccccc1)C3 (some centres not stated)
IC50 (HeLa [1]): > 100 µM | Activity (HeLa [15]): inactive

O=C(C[C@H]1CN2C3CC(OC(=O)C4CCCCCC4)C1C2CN(Cc1ccccc1)C3)NCc1ccccc1 (some centres not stated)
IC50 (HeLa [1]): 5.1 µM | fold change (FC) [2]: 2.2

CC(C)CNC(=O)C[C@H]1CN2C3CC(OC(=O)Cc4ccccc4)C1C2CN(CC(C)C)C3 (some centres not stated)
IC50 (HeLa [1]): > 100 µM | fold change (FC) [2]: 1.3

CCCCCCNC(=O)/C=C1/CN2C3CNCC2C1C(OC(=O)C(C)C)C3 (configuration not stated)
IC50 (HeLa [1]): > 100 µM | fold change (FC) [2]: 1.3

O=C(C[C@H]1CN2C3CC(O)C1C2CN(Cc1ccccc1)C3)NCc1ccccc1 (some centres not stated)
IC50 (HeLa [1]): > 100 µM | Activity (HeLa [15]): inactive

CC(C)CNC(=O)C[C@H]1CN2C3CC(OC(=O)CC(C)C)C1C2CN(CC(C)C)C3 (some centres not stated)
IC50 (HeLa [1]): > 100 µM | fold change (FC) [2]: 1.2

CC(C)C(=O)OC1CC2CN(CC3CCCCC3)CC3C1[C@@H](CC(=O)NCC1CCCCC1)CN23 (some centres not stated)
IC50 (HeLa [1]): 6 µM | fold change (FC) [2]: 2.9 | fold change (FC) [5]: 3.7 | fold change (FC) [14]: 1.4

CC(C)CNC(=O)C[C@H]1CN2C3CC(OC(=O)Cc4ccccc4)C1C2CN(Cc1ccccc1)C3 (some centres not stated)
IC50 (HeLa [1]): 47.9 µM | fold change (FC) [2]: 1.6

CC(C)CNC(=O)C[C@H]1CN2C3CC(OC(=O)CC(C)C)C1C2CN(Cc1ccccc1)C3 (some centres not stated)
IC50 (HeLa [1]): 15.7 µM | fold change (FC) [2]: 1.7

CC(C)CC(=O)OC1CC2CN(Cc3ccccc3)CC3C1[C@@H](CC(=O)NCc1ccccc1)CN23 (some centres not stated)
IC50 (HeLa [1]): 10 µM | fold change (FC) [2]: 3

CC(=O)OC1CC2CN(Cc3ccccc3)CC3C1[C@@H](CC(=O)NCc1ccccc1)CN23 (some centres not stated)
IC50 (HeLa [1]): 78.4 µM | fold change (FC) [2]: 3.5

CC(C)CC(=O)OC1CC2CN(CC(C)C)CC3C1[C@@H](CC(=O)NCc1ccccc1)CN23 (some centres not stated)
IC50 (HeLa [1]): 34.2 µM | fold change (FC) [2]: 2.5

CC(C)C(=O)OC1CC2CN(Cc3ccccc3)CC3C1[C@@H](CC(=O)NCC1CCCCC1)CN23 (some centres not stated)
IC50 (HeLa [1]): 15.5 µM | fold change (FC) [2]: 2.4 | fold change (FC) [5]: 2.1 | fold change (FC) [14]: 2

CCCCCCNC(=O)/C=C1/CN2C3CC(OC(=O)C(C)C)C1C2CN(Cc1ccccc1)C3 (configuration not stated)
IC50 (HeLa [1]): 12.5 µM | fold change (FC) [2]: 3

CNC(=O)C[C@H]1CN2C3CC(OC(=O)C(C)C)C1C2CN(Cc1ccccc1)C3 (some centres not stated)
IC50 (HeLa [1]): > 100 µM | fold change (FC) [2]: 1.9

O=C(C[C@H]1CN2C3CC(OC(=O)C4CCCCC4)C1C2CN(Cc1ccccc1)C3)NCc1ccccc1 (some centres not stated)
IC50 (HeLa [1]): 5.2 µM | fold change (FC) [2]: 3.7

CC(C)(C)C(=O)OC1CC2CN(Cc3ccccc3)CC3C1[C@@H](CC(=O)NCc1ccccc1)CN23 (some centres not stated)
IC50 (HeLa [1]): 5.6 µM | fold change (FC) [2]: 3.8

CC(C)CCC(=O)OC1CC2CN(Cc3ccccc3)CC3C1[C@@H](CC(=O)NCc1ccccc1)CN23 (some centres not stated)
IC50 (HeLa [1]): 6.2 µM | fold change (FC) [2]: 3.7

CCOC(=O)C[C@H]1CN2C3CNCC2C1C(=O)C3 (some centres not stated)
IC50 (HeLa [1]): > 100 µM | Activity (HeLa [15]): inactive

CC(C)CN1CC2CC(OC(=O)Cc3ccccc3)C3C(C1)N2C[C@@H]3CC(=O)NCc1ccccc1 (some centres not stated)
IC50 (HeLa [1]): 94.2 µM | fold change (FC) [2]: 1.8
